According to patent US6982348B2, “Aminoethanol derivatives” (Takeda Pharmaceutical Company Limited, priority 2001, dated 2006):

Compared with `O=C(N[C@H](Cc1ccc(C(F)(F)F)cc1)[C@@H](O)c1ccc(F)cc1)c1ccc(/C=C\c2ccccc2Cl)cc1` (racemic) [Example 96, 4-[(Z)-2-(2-chlorophenyl)ethenyl]-N-[(1RS,2SR)-2-(4-fluorophenyl)-2-hydroxy-1-[4-(trifluoromethyl)benzyl]ethyl]benzenecarboxamide], `O=C(N[C@H](Cc1ccc(C(F)(F)F)cc1)[C@@H](O)c1ccc(F)cc1)c1cccc(Oc2ccccc2)c1` (racemic) [Example 107, N-((1RS,2SR)-2-(4-fluorophenyl)-2-hydroxy-1-((4-(trifluoromethyl)phenyl)methyl)ethyl)-3-phenoxybenzamide] is lower in melting point: 153 to 154 °C for the first, 144 to 145 °C for the second.

Compared with `O=C(N[C@H](Cc1ccc(C(F)(F)F)cc1)[C@@H](O)c1ccc(F)cc1)c1c(CSc2ccccc2)ccc2ccccc12` (racemic) [Example 97, N-[(1RS,2SR)-2-(4-fluorophenyl)-2-hydroxy-1-[4-(trifluoromethyl)benzyl]ethyl]-2-[(phenylthio)methyl]naphthalene-1-carboxamide], `O=C(Nc1cccc2ccccc12)N[C@H](Cc1ccc(C(F)(F)F)cc1)[C@@H](O)c1ccc(F)cc1` (racemic) [Example 118, N-((1RS,2SR)-2-(4-fluorophenyl)-2-hydroxy-1-((4-(trifluoromethyl)phenyl)methyl)ethyl)-N′-(1-naphthalenyl)urea] is higher in melting point: 102 to 104 °C for the first, 222 to 223 °C for the second.

Compared with `Cn1cc(C(=O)N[C@H](Cc2ccc(C(F)(F)F)cc2)[C@@H](O)c2ccc(F)cc2)c2ccccc21` (racemic) [Example 98, N-[(1RS,2SR)-2-(4-fluorophenyl)-2-hydroxy-1-[4-(trifluoromethyl)benzyl]ethyl]-1-methyl-1H-indole-3-carboxamide], `COc1ccc(C(=O)N[C@H](Cc2ccc(C(F)(F)F)cc2)[C@@H](O)c2ccc(F)cc2)c2ccccc12` (racemic) [Example 101, N-[(1RS,2SR)-2-(4-fluorophenyl)-2-hydroxy-1-[4-(trifluoromethyl)benzyl]ethyl]-4-methoxynaphthalene-1-carboxamide] is higher in melting point: 129 to 131 °C for the first, 227 to 228 °C for the second.

Compared with `O=C(CCCCc1ccccc1)N[C@H](Cc1ccc(C(F)(F)F)cc1)[C@@H](O)c1ccc(F)cc1` (racemic) [Example 99, N-((1RS,2SR)-2-(4-fluorophenyl)-2-hydroxy-1-((4-(trifluoromethyl)phenyl)methyl)ethyl)-5-phenylpentanamide], `O=C(N[C@H](Cc1ccc(C(F)(F)F)cc1)[C@@H](O)c1ccc(F)cc1)OCc1ccccc1` (racemic) [Example 114, benzyl N-[(1RS,2SR)-2-(4-fluorophenyl)-2-hydroxy-1-[4-(trifluoromethyl)benzyl]ethyl]carbamate] is lower in melting point: 152 to 153 °C for the first, 151 to 152 °C for the second.

Compared with `O=C(N[C@H](Cc1ccc(C(F)(F)F)cc1)[C@@H](O)c1ccc(F)cc1)c1cc([N+](=O)[O-])cc2ccccc12` (racemic) [Example 102, N-[(1RS,2SR)-2-(4-fluorophenyl)-2-hydroxy-1-[4-(trifluoromethyl)benzyl]ethyl]-3-nitronaphthalene-1-carboxamide], `NC(=O)c1ccc(C(=O)N[C@H](Cc2ccc(C(F)(F)F)cc2)[C@@H](O)c2ccc(F)cc2)c2ccccc12` (racemic) [Example 104, N1-[(1RS,2SR)-2-(4-fluorophenyl)-2-hydroxy-1-[4-(trifluoromethyl)benzyl]ethyl]naphthalene-1,4-dicarboxamide] is higher in melting point: 231 to 232 °C for the first, 255 to 256 °C for the second.

Compared with `O=C(N[C@H](Cc1ccc(C(F)(F)F)cc1)[C@@H](O)c1ccc(F)cc1)c1ccc(CO)c2ccccc12` (racemic) [Example 105, N-((1RS,2SR)-2-(4-fluorophenyl)-2-hydroxy-1-((4-(trifluoromethyl)phenyl)methyl)ethyl)-4-(hydroxymethyl)-1-naphthalenecarboxamide], `O=C(N[C@H](Cc1ccc(OC(F)(F)F)cc1)[C@@H](O)c1ccc(F)cc1)c1ccc(F)c2ccccc12` (racemic) [Example 134, 4-fluoro-N-[(1RS,2SR)-2-(4-fluorophenyl)-2-hydroxy-1-[4-(trifluoromethoxy)benzyl]ethyl]naphthalene-1-carboxamide] is higher in melting point: 202 to 203 °C for the first, 230 to 231 °C for the second.

First: O=C(CC(F)(F)F)N[C@H](Cc1ccc(C(F)(F)F)cc1)[C@@H](O)c1ccc(F)cc1 (racemic) [Example 109, N-[(1RS,2SR)-2-(4-fluorophenyl)-2-hydroxy-1-[4-(trifluoromethyl)benzyl]ethyl]-3,3,3-trifluoropropionamide]
Second: CCOC(=O)N[C@H](Cc1ccc(C(F)(F)F)cc1)[C@@H](O)c1ccc(F)cc1 (racemic) [Example 115, ethyl N-[(1RS,2SR)-2-(4-fluorophenyl)-2-hydroxy-1-[4-(trifluoromethyl)benzyl]ethyl]carbamate]
The melting point of the first is higher: 179 to 180 °C for the first, 143 to 144 °C for the second.

Compared with `O=C(N[C@H](Cc1ccc(C(F)(F)F)cc1)[C@@H](O)c1ccc(F)cc1)C(c1ccccc1)C1CCCC1` (mixture of isomers) [Example 110, 2-cyclopentyl-N-[(1RS,2SR)-2-(4-fluorophenyl)-2-hydroxy-1-[4-(trifluoromethyl)benzyl]ethyl]-2-phenylacetamide], `CC(C)(C)C(Cc1ccccc1)C(=O)N[C@H](Cc1ccc(C(F)(F)F)cc1)[C@@H](O)c1ccc(F)cc1` (mixture of isomers) [Example 112, 2-benzyl-N-[(1RS,2SR)-2-(4-fluorophenyl)-2-hydroxy-1-[4-(trifluoromethyl)benzyl]ethyl]-3,3-dimethylbutyramide] is lower in melting point: 201 to 202 °C for the first, 175 to 176 °C for the second.

First: O=C(N[C@H](Cc1ccc(C(F)(F)F)cc1)[C@@H](O)c1ccc(F)cc1)c1cc([N+](=O)[O-])cc2c1CCCC2 (racemic) [Example 111, N-[(1RS,2SR)-2-(4-fluorophenyl)-2-hydroxy-1-[4-(trifluoromethyl)benzyl]ethyl]-3-nitro-5,6,7,8-tetrahydronaphthalene-1-carboxamide]
Second: O=C(N[C@H](Cc1ccc(C(F)(F)F)cc1)[C@@H](O)c1ccc(F)cc1)c1cccc2c1OCCCO2 (racemic) [Example 113, N-[(1RS,2SR)-2-(4-fluorophenyl)-2-hydroxy-1-[4-(trifluoromethyl)benzyl]ethyl]-3,4-dihydro-2H-1,5-benzodioxepine-6-carboxamide]
The melting point of the first is higher: 216 to 217 °C for the first, 155 to 156 °C for the second.

First: CC(C)(C)COC(=O)N[C@H](Cc1ccc(C(F)(F)F)cc1)[C@@H](O)c1ccc(F)cc1 (racemic) [Example 116, neopentyl N-[(1RS,2SR)-2-(4-fluorophenyl)-2-hydroxy-1-[4-(trifluoromethyl)benzyl]ethyl]carbamate]
Second: CC(C)(C)OC(=O)N[C@H](Cc1cccc(OC(F)(F)C(F)F)c1)[C@@H](O)c1ccc(F)cc1 (racemic) [Example 130, tert-butyl N-[(1RS,2SR)-2-(4-fluorophenyl)-2-hydroxy-1-[3-(1,1,2,2-tetrafluoroethoxy)benzyl]ethyl]carbamate]
The melting point of the first is lower: 112 to 113 °C for the first, 145 to 146 °C for the second.

Compared with `O=S(=O)(N[C@H](Cc1ccc(C(F)(F)F)cc1)[C@@H](O)c1ccc(F)cc1)c1cccc2ccccc12` (racemic) [Example 117, N-((1RS,2SR)-2-(4-fluorophenyl)-2-hydroxy-1-((4-(trifluoromethyl)phenyl)methyl)ethyl)-1-naphthalenesulfonamide], `CN(C(=O)c1cccc2ccccc12)[C@H](Cc1ccc(C(F)(F)F)cc1)[C@@H](O)c1ccc(F)cc1` (racemic) [Example 121, N-((1RS,2SR)-2-(4-fluorophenyl)-2-hydroxy-1-((4-(trifluoromethyl)phenyl)methyl)ethyl)-N-methyl-1-naphthalenecarboxamide] is higher in melting point: 176 to 177 °C for the first, 196 to 197 °C for the second.

First: O=C(Nc1ccc(C(F)(F)F)cc1)N[C@H](Cc1ccc(C(F)(F)F)cc1)[C@@H](O)c1ccc(F)cc1 (racemic) [Example 119, N-((1RS,2SR)-2-(4-fluorophenyl)-2-hydroxy-1-((4-(trifluoromethyl)phenyl)methyl)ethyl)-N′-(4-(trifluoromethyl)phenyl)urea]
Second: O=C(N[C@H](Cc1ccc(OC(F)(F)C(F)F)cc1)[C@@H](O)c1ccc(F)cc1)c1ccc(F)c2ccccc12 (racemic) [Example 131, 4-fluoro-N-[(1RS,2SR)-2-(4-fluorophenyl)-2-hydroxy-1-[4-(1,1,2,2-tetrafluoroethoxy)benzyl]ethyl]naphthalene-1-carboxamide]
The melting point of the first is lower: 160 to 161 °C for the first, 192 to 193 °C for the second.

First: CC1=Cc2c(cccc2C(=O)N[C@H](Cc2cccc(OC(F)(F)C(F)F)c2)[C@@H](O)c2ccc(F)cc2)CCC1 (racemic) [Example 127, N-[(1RS,2SR)-2-(4-fluorophenyl)-2-hydroxy-1-[3-(1,1,2,2-tetrafluoroethoxy)benzyl]ethyl]-8-methyl-6,7-dihydro-5H-benzo[a]cycloheptene-1-carboxamide]
Second: O=C(N[C@H](Cc1cccc(OC(F)(F)F)c1)[C@@H](O)c1ccc(F)cc1)c1cccc2c1C=CCCC2 (racemic) [Example 133, N-[(1RS,2SR)-2-(4-fluorophenyl)-2-hydroxy-1-[3-(trifluoromethoxy)benzyl]ethyl]-6,7-dihydro-5H-benzo[a]cycloheptene-1-carboxamide]
The melting point of the first is lower: 149 to 150 °C for the first, 177 to 178 °C for the second.

First: O=C(N[C@H](Cc1cccc(OC(F)(F)C(F)F)c1)[C@@H](O)c1ccc(F)cc1)c1cccc2c1OCCCO2 (racemic) [Example 128, N-[(1RS,2SR)-2-(4-fluorophenyl)-2-hydroxy-1-[3-(1,1,2,2-tetrafluoroethoxy)benzyl]ethyl]-3,4-dihydro-2H-1,5-benzodioxepine-6-carboxamide]
Second: CCOC(=O)N[C@H](Cc1cccc(OC(F)(F)C(F)F)c1)[C@@H](O)c1ccc(F)cc1 (racemic) [Example 129, ethyl N-[(1RS,2SR)-2-(4-fluorophenyl)-2-hydroxy-1-[3-(1,1,2,2-tetrafluoroethoxy)benzyl]ethyl]carbamate]
The melting point of the first is higher: 147 to 148 °C for the first, 113 to 114 °C for the second.

In the case of `O=C(N[C@H](Cc1cccc(OC(F)(F)F)c1)[C@@H](O)c1ccc(F)cc1)c1ccc(F)c2ccccc12` (racemic) [Example 132, 4-fluoro-N-[(1RS,2SR)-2-(4-fluorophenyl)-2-hydroxy-1-[3-(trifluoromethoxy)benzyl]ethyl]naphthalene-1-carboxamide], the melting point was 189 to 190 °C.
